Data from the supplement of paper PMC10307832.

Assays:
Assay in all cases: relative viability (nuclei count vs DMSO), 5 days (fraction); higher = more cells survive
COR-L23 = test system: COR-L23
How it was run: (§1)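 A single step with final 0.05% Triton X-100, 1% formaldehyde and 1 ug/ml Hoechst fixed the cells and stained nuclei 5 days after treatment. Lung cancer cell lines in 1536-well plates had been treated by pin tool the day after seeding with one drug alone or a fixed anchor-drug dose plus five library-drug doses (not always all listed) in √10 steps, and nuclei were counted on 4× images. Relative viability is the ratio of nuclei in treated wells to nuclei in vehicle wells, taken as the median of duplicate plates.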

ChaGo-K-1 = test system: ChaGo-K-1
How it was run: as §1

EMC-BAC-2 = test system: EMC-BAC-2
How it was run: as §1

EPLC-272H = test system: EPLC-272H
How it was run: as §1

HCC-44 = test system: HCC-44
How it was run: as §1

HOP-62 = test system: HOP-62
How it was run: as §1

LCLC-103H = test system: LCLC-103H
How it was run: as §1

LK-2 = test system: LK-2
How it was run: as §1

NCI-H1355 = test system: NCI-H1355
How it was run: as §1

NCI-H1666 = test system: NCI-H1666
How it was run: as §1

NCI-H1944 = test system: NCI-H1944
How it was run: as §1

NCI-H1975 = test system: NCI-H1975
How it was run: as §1

NCI-H2023 = test system: NCI-H2023
How it was run: as §1

NCI-H2087 = test system: NCI-H2087
How it was run: as §1

NCI-H2126 = test system: NCI-H2126
How it was run: as §1

NCI-H2228 = test system: NCI-H2228
How it was run: as §1

NCI-H2405 = test system: NCI-H2405
How it was run: as §1

NCI-H3122 = test system: NCI-H3122
How it was run: as §1

NCI-H322M = test system: NCI-H322M
How it was run: as §1

NCI-H441 = test system: NCI-H441
How it was run: as §1

NCI-H460 = test system: NCI-H460
How it was run: as §1

NCI-H596 = test system: NCI-H596
How it was run: as §1

PC-14 = test system: PC-14
How it was run: as §1

SW 1573 = test system: SW 1573
How it was run: as §1

SW 900 = test system: SW 900
How it was run: as §1

Nc1cccc2c1CN(C1CCC(=O)NC1=O)C2=O (stereo not given) [Lenalidomide] + Cc1cc(Nc2cc(N3CCN(C)CC3)nc(Sc3ccc(NC(=O)C4CC4)cc3)n2)n[nH]1 [Tozasertib] (partner 0.1 µM)
relative viability (COR-L23; first compound 0.253 µM): 0.255
relative viability (COR-L23; first compound 0.8 µM): 0.238
relative viability (COR-L23; first compound 2.53 µM): 0.229
relative viability (COR-L23; first compound 8 µM): 0.29
relative viability (ChaGo-K-1; first compound 0.253 µM): 0.242
relative viability (ChaGo-K-1; first compound 0.8 µM): 0.228
relative viability (ChaGo-K-1; first compound 2.53 µM): 0.249
relative viability (ChaGo-K-1; first compound 8 µM): 0.231
relative viability (EMC-BAC-2; first compound 0.253 µM): 0.287
relative viability (EMC-BAC-2; first compound 0.8 µM): 0.272
relative viability (EMC-BAC-2; first compound 2.53 µM): 0.298
relative viability (EMC-BAC-2; first compound 8 µM): 0.333
relative viability (EPLC-272H; first compound 0.253 µM): 0.343
relative viability (EPLC-272H; first compound 0.8 µM): 0.229
relative viability (EPLC-272H; first compound 2.53 µM): 0.349
relative viability (EPLC-272H; first compound 8 µM): 0.256
relative viability (HCC-44; first compound 0.253 µM): 0.886
relative viability (HCC-44; first compound 2.53 µM): 1.22
relative viability (HCC-44; first compound 8 µM): 1.12
relative viability (HOP-62; first compound 0.253 µM): 0.359
relative viability (HOP-62; first compound 0.8 µM): 0.41
relative viability (HOP-62; first compound 2.53 µM): 0.352
relative viability (HOP-62; first compound 8 µM): 0.405
relative viability (LCLC-103H; first compound 0.253 µM): 0.47
relative viability (LCLC-103H; first compound 0.8 µM): 0.517
relative viability (LCLC-103H; first compound 2.53 µM): 0.644
relative viability (LCLC-103H; first compound 8 µM): 0.566
relative viability (LK-2; first compound 0.253 µM): 0.175
relative viability (LK-2; first compound 0.8 µM): 0.197
relative viability (LK-2; first compound 2.53 µM): 0.164
relative viability (LK-2; first compound 8 µM): 0.135
relative viability (NCI-H1355; first compound 0.253 µM): 0.578
relative viability (NCI-H1355; first compound 2.53 µM): 0.559
relative viability (NCI-H1355; first compound 8 µM): 0.59
relative viability (NCI-H1666; first compound 0.253 µM): 0.585
relative viability (NCI-H1666; first compound 2.53 µM): 0.655
relative viability (NCI-H1666; first compound 8 µM): 0.653
relative viability (NCI-H1944; first compound 0.253 µM): 0.234
relative viability (NCI-H1944; first compound 0.8 µM): 0.278
relative viability (NCI-H1944; first compound 2.53 µM): 0.285
relative viability (NCI-H1944; first compound 8 µM): 0.232
relative viability (NCI-H1975; first compound 0.253 µM): 0.886
relative viability (NCI-H1975; first compound 0.8 µM): 0.755
relative viability (NCI-H1975; first compound 2.53 µM): 0.844
relative viability (NCI-H1975; first compound 8 µM): 0.849
relative viability (NCI-H2023; first compound 0.253 µM): 0.445
relative viability (NCI-H2023; first compound 0.8 µM): 0.403
relative viability (NCI-H2023; first compound 2.53 µM): 0.386
relative viability (NCI-H2023; first compound 8 µM): 0.519
relative viability (NCI-H2087; first compound 0.253 µM): 0.24
relative viability (NCI-H2087; first compound 0.8 µM): 0.226
relative viability (NCI-H2087; first compound 2.53 µM): 0.277
relative viability (NCI-H2087; first compound 8 µM): 0.242
relative viability (NCI-H2126; first compound 0.253 µM): 0.873
relative viability (NCI-H2126; first compound 0.8 µM): 0.817
relative viability (NCI-H2126; first compound 2.53 µM): 0.82
relative viability (NCI-H2126; first compound 8 µM): 0.737
relative viability (NCI-H2228; first compound 0.253 µM): 0.288
relative viability (NCI-H2228; first compound 0.8 µM): 0.338
relative viability (NCI-H2228; first compound 2.53 µM): 0.283
relative viability (NCI-H2228; first compound 8 µM): 0.345
relative viability (NCI-H2405; first compound 0.253 µM): 0.738
relative viability (NCI-H2405; first compound 0.8 µM): 0.766
relative viability (NCI-H2405; first compound 2.53 µM): 0.778
relative viability (NCI-H2405; first compound 8 µM): 0.78
relative viability (NCI-H3122; first compound 0.253 µM): 0.39
relative viability (NCI-H3122; first compound 0.8 µM): 0.416
relative viability (NCI-H3122; first compound 2.53 µM): 0.406
relative viability (NCI-H3122; first compound 8 µM): 0.522
relative viability (NCI-H322M; first compound 0.253 µM): 0.471
relative viability (NCI-H322M; first compound 0.8 µM): 0.566
relative viability (NCI-H322M; first compound 2.53 µM): 0.49
relative viability (NCI-H322M; first compound 8 µM): 0.439
relative viability (NCI-H441; first compound 0.253 µM): 0.72
relative viability (NCI-H441; first compound 0.8 µM): 0.572
relative viability (NCI-H441; first compound 2.53 µM): 0.621
relative viability (NCI-H441; first compound 8 µM): 0.522
relative viability (NCI-H460; first compound 0.253 µM): 0.393
relative viability (NCI-H460; first compound 0.8 µM): 0.396
relative viability (NCI-H460; first compound 2.53 µM): 0.49
relative viability (NCI-H460; first compound 8 µM): 0.587
relative viability (NCI-H596; first compound 0.253 µM): 0.755
relative viability (NCI-H596; first compound 2.53 µM): 0.904
relative viability (NCI-H596; first compound 8 µM): 0.774
relative viability (PC-14; first compound 0.253 µM): 0.629
relative viability (PC-14; first compound 0.8 µM): 0.696
relative viability (PC-14; first compound 2.53 µM): 0.706
relative viability (PC-14; first compound 8 µM): 0.738
relative viability (SW 1573; first compound 0.253 µM): 0.159
relative viability (SW 1573; first compound 0.8 µM): 0.193
relative viability (SW 1573; first compound 2.53 µM): 0.276
relative viability (SW 1573; first compound 8 µM): 0.198
relative viability (SW 900; first compound 0.253 µM): 0.544
relative viability (SW 900; first compound 2.53 µM): 0.635
relative viability (SW 900; first compound 8 µM): 0.616
